Among the test systems are MDA-N; Hs-578T; KM12; NCI-H226; HCT-15; TK-10; HOP-92; MDA-MB-231; NCI-H522; PC-3; UACC-257; UO-31; MOLT-4; COLO 205; OVCAR-4; LOX IMVI; EKVX; SK-MEL-2; SF-295.
What all share (assay): DTP human tumour cell line panel, 48 h

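Each compound was tested at five concentrations against cells in 96-well plates for 48 hours. GI50 = concentration required for 50% inhibition of growth.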 Active and inactive are the calls of the source. No stated cut-off is given here; in the data, active = GI50 up to about 1.1 µM and inactive = higher.

On to `N#Cc1c(O)nc2nn3c4ccc5ccccc5c4nnc3c2c1-c1ccc(Cl)cc1`, for which the GI50 (as a rule, the concentration that inhibits growth by half) with MDA-N was 2.52 µM (inactive); with Hs-578T, 2.76 µM (inactive); with KM12, 2.8 µM (inactive); in the test on NCI-H226, 7.14 µM (inactive); with HCT-15, 1.89 µM; with TK-10 it was 5.89 µM (inactive). The GI50 in the test on HOP-92 was 2.3 µM (inactive); in the test with MDA-MB-231 it was 5.36 µM (inactive); with NCI-H522, 1.5 µM (inactive); with PC-3, 2.43 µM (inactive); in the test with UACC-257, 3.58 µM (inactive); in the test with UO-31 it was 2.38 µM (inactive). The GI50 with MOLT-4 is 2.4 µM (inactive); in the test on COLO 205, 2.24 µM (inactive); in the test with OVCAR-4, 3.58 µM (inactive); in the test on LOX IMVI, 1.83 µM (inactive); in the test with EKVX, 3.93 µM (inactive); with SK-MEL-2 it was 1.9 µM (inactive). Besides, in the test on SF-295, the GI50 was 1.84 µM (inactive).
`CC(C)[Si](OC1=C(C(=O)N(C)c2ccccc2Cl)CCCC1)(C(C)C)C(C)C`: the GI50 in the test on MDA-N was 16.4 µM (inactive); with Hs-578T, 13.3 µM (inactive); in the test with KM12 it was 14.2 µM (inactive); in the test with NCI-H226 it was 16 µM (inactive); in the test with HCT-15 it was 16.1 µM; in the test with TK-10, 15.1 µM (inactive). For the same molecule, the GI50 with HOP-92 was 13.3 µM (inactive); in the test on MDA-MB-231 it was 16.3 µM (inactive); in the test on NCI-H522, 5.77 µM (inactive); with PC-3 it was 11.4 µM (inactive); with UACC-257, 10.2 µM (inactive); in the test on UO-31, 14.5 µM (inactive). Also, the GI50 with MOLT-4 is 14.1 µM (inactive); with COLO 205 it was 14.5 µM (inactive); with OVCAR-4, 13.9 µM (inactive); in the test on LOX IMVI, 15.7 µM (inactive); with EKVX, 13.6 µM (inactive); with SK-MEL-2, 14.1 µM (inactive). Besides, the GI50 in the test on SF-295 is 7.52 µM (inactive).
For the molecule `CC1CCCCCC(=O)c2c(O)cc(O)cc2CC(=O)O1` (centres undefined) [CURVULARIN], the GI50 in the test with MDA-N was > 100 µM (inactive); with Hs-578T, > 100 µM (inactive); in the test on KM12, > 100 µM (inactive); with NCI-H226, > 100 µM (inactive); in the test on HCT-15, > 100 µM; with TK-10, 90.2 µM (inactive). For the same molecule, the GI50 in the test with HOP-92 is > 100 µM (inactive); in the test on MDA-MB-231 it was > 100 µM (inactive); in the test on NCI-H522, > 100 µM (inactive); in the test on PC-3, 66.8 µM (inactive); with UACC-257, 55.6 µM (inactive); in the test with UO-31 it was 45 µM (inactive). The GI50 was 73.8 µM (inactive) with MOLT-4; > 100 µM (inactive) with COLO 205; > 100 µM (inactive) in the test on OVCAR-4; 43.9 µM (inactive) in the test with LOX IMVI; 61.5 µM (inactive) in the test with EKVX; 76.6 µM (inactive) in the test with SK-MEL-2. In addition, in the test on SF-295, the GI50 was 94.8 µM (inactive).
As for `NCC1OC(n2cnc3c(N)ncnc32)CC1O` (centres undefined), the GI50 was > 100 µM (inactive) in the test with MDA-N; > 100 µM (inactive) in the test with Hs-578T; > 100 µM (inactive) in the test with KM12; > 100 µM (inactive) in the test with NCI-H226; > 100 µM in the test with HCT-15; > 100 µM (inactive) with TK-10. Further, the GI50 in the test with HOP-92, with MDA-MB-231, in the test on NCI-H522, in the test with PC-3, with UACC-257 and in the test with UO-31 was > 100 µM (inactive) each time. The GI50 in the test on MOLT-4, with COLO 205, in the test with OVCAR-4, with LOX IMVI, in the test with EKVX and with SK-MEL-2 was > 100 µM (inactive) throughout. Further, the GI50 in the test on SF-295 is > 100 µM (inactive).
In the case of `COc1ccc(/C=C/C(=N/NC(=O)N/N=C(/C=C/c2ccc(OC)cc2)C(C)C)C(C)C)cc1`, the GI50 in the test with MDA-N is > 100 µM (inactive); in the test on Hs-578T, > 100 µM (inactive); in the test with KM12, 51.2 µM (inactive); in the test with NCI-H226, > 100 µM (inactive); in the test on HCT-15, 49.5 µM; in the test with TK-10, 50 µM (inactive). Moreover, the GI50 was 66.7 µM (inactive) with HOP-92; > 100 µM (inactive) with MDA-MB-231; 63.1 µM (inactive) in the test on NCI-H522; 50.9 µM (inactive) in the test on PC-3; > 100 µM (inactive) in the test on UACC-257; 76.2 µM (inactive) in the test with UO-31. Also, the GI50 with MOLT-4 was 26.1 µM (inactive); in the test with COLO 205 it was 43.7 µM (inactive); in the test on OVCAR-4 it was > 100 µM (inactive); with LOX IMVI, > 100 µM (inactive); with EKVX, 40 µM (inactive); in the test on SK-MEL-2, > 100 µM (inactive). Besides, in the test on SF-295, the GI50 was 99.1 µM (inactive).
For `O=C(O)c1c2c(cc3c1CC(Cc1ccccc1)C3=O)CCC2` (centres undefined), the GI50 with MDA-N was > 100 µM (inactive); with Hs-578T, > 100 µM (inactive); with KM12 it was 65.8 µM (inactive); in the test on NCI-H226 it was > 100 µM (inactive); with HCT-15, 41.7 µM; with TK-10, > 100 µM (inactive). Further, the GI50 was 29.5 µM (inactive) in the test on HOP-92; 30.5 µM (inactive) with MDA-MB-231; 74.6 µM (inactive) in the test on NCI-H522; 64.3 µM (inactive) with PC-3; > 100 µM (inactive) with UACC-257; 16.6 µM (inactive) with UO-31. Moreover, the GI50 with MOLT-4 was 96.8 µM (inactive); with COLO 205, > 100 µM (inactive); in the test with OVCAR-4, > 100 µM (inactive); in the test on LOX IMVI, 26 µM (inactive); with EKVX, > 100 µM (inactive); in the test on SK-MEL-2, > 100 µM (inactive). For the same molecule, the GI50 in the test on SF-295 is > 100 µM (inactive).
`C[C@@H]1CCC2[C@@H](C)[C@H](O[C@H]3O[C@@H]4O[C@@]5(C)CCC6[C@H](C)CCC([C@H]3C)[C@]64OO5)O[C@@H]3O[C@@]4(C)CCC1[C@@]23OO4` (some centres undefined): the GI50 with MDA-N was 0.136 µM (active); in the test on Hs-578T, 0.39 µM (active); with KM12 it was 0.0317 µM (active); with NCI-H226, 2.11 µM (inactive); in the test on HCT-15, 0.022 µM; in the test on TK-10, 0.205 µM (active). Further, the GI50 with HOP-92 was 0.114 µM (active); in the test with MDA-MB-231, 0.385 µM (active); in the test on NCI-H522, 0.0577 µM (active); in the test with PC-3 it was 0.0148 µM (active); in the test on UACC-257, 0.0912 µM (active); in the test on UO-31, 0.0559 µM (active). Moreover, the GI50 with MOLT-4 is 0.0546 µM (active); in the test on COLO 205 it was 0.0388 µM (active); with OVCAR-4, 0.27 µM (active); in the test on LOX IMVI it was 0.0258 µM (active); in the test with EKVX, 0.142 µM (active); in the test with SK-MEL-2, 0.401 µM (active). In addition, the GI50 in the test on SF-295 is 0.32 µM (active).
Turning to `CN(C)CCCN1c2ccccc2C(C)(C)c2ccccc21` [DIMETACRINE], the GI50 in the test with MDA-N was 14.2 µM (inactive); in the test on Hs-578T, 15.1 µM (inactive); in the test with KM12, 14.1 µM (inactive); with NCI-H226, 15.6 µM (inactive); in the test on HCT-15, 16.3 µM; in the test on TK-10 it was 14.2 µM (inactive). Also, the GI50 in the test with HOP-92 was 14.6 µM (inactive); in the test with MDA-MB-231, 14.7 µM (inactive); in the test on NCI-H522, 14.8 µM (inactive); in the test with PC-3, 13.7 µM (inactive); with UACC-257 it was 11.7 µM (inactive); with UO-31, 13.9 µM (inactive). Also, the GI50 with MOLT-4 is 13.7 µM (inactive); in the test with COLO 205 it was 14.6 µM (inactive); in the test on OVCAR-4 it was 13.9 µM (inactive); in the test with LOX IMVI it was 15.1 µM (inactive); in the test with EKVX, 17.6 µM (inactive); with SK-MEL-2, 16.5 µM (inactive). The GI50 with SF-295 was 17.4 µM (inactive).
As to `Cc1ccc(/C=C2\N=C(N3CCCC(CO)C3)NC2=O)cc1` (centres undefined), the GI50 with MDA-N was > 100 µM (inactive); with Hs-578T, > 100 µM (inactive); in the test on KM12 it was > 100 µM (inactive); in the test with NCI-H226 it was > 100 µM (inactive); in the test with HCT-15, > 100 µM; in the test with TK-10, > 100 µM (inactive). The GI50 in the test on HOP-92, with MDA-MB-231, in the test on NCI-H522, in the test on PC-3, with UACC-257 and in the test on UO-31 was > 100 µM (inactive) in each case. Moreover, the GI50 with MOLT-4, in the test on COLO 205, with OVCAR-4, with LOX IMVI, in the test on EKVX and in the test with SK-MEL-2 was > 100 µM (inactive) throughout. Moreover, in the test on SF-295, the GI50 was > 100 µM (inactive).
For the molecule `CCn1nc2c3c(ncn3C(C)(C)O2)c1=O`, the GI50 in the test with MDA-N is > 100 µM (inactive); in the test on Hs-578T, > 100 µM (inactive); in the test with KM12 it was > 100 µM (inactive); with NCI-H226 it was > 100 µM (inactive); with HCT-15 it was > 100 µM; in the test with TK-10 it was > 100 µM (inactive). The GI50 with HOP-92, with MDA-MB-231, in the test on NCI-H522, in the test on PC-3, with UACC-257 and in the test with UO-31 was > 100 µM (inactive) throughout. Also, the GI50 in the test with MOLT-4, in the test with COLO 205, in the test on OVCAR-4, with LOX IMVI, with EKVX and in the test with SK-MEL-2 was > 100 µM (inactive) throughout. The GI50 with SF-295 was > 100 µM (inactive).
Take `CC(N)(/C=C/c1ccccc1)C(=O)O` (centres undefined): the GI50 in the test with MDA-N is > 100 µM (inactive); with Hs-578T, 67.3 µM (inactive); in the test with KM12, > 100 µM (inactive); in the test on NCI-H226, > 100 µM (inactive); with HCT-15 it was > 100 µM; in the test with TK-10, > 100 µM (inactive). For the same molecule, the GI50 in the test with HOP-92, in the test with MDA-MB-231, in the test with NCI-H522, in the test on PC-3, with UACC-257 and with UO-31 was > 100 µM (inactive) throughout. The GI50 in the test with MOLT-4, in the test on COLO 205, in the test on OVCAR-4, in the test on LOX IMVI, in the test on EKVX and with SK-MEL-2 was > 100 µM (inactive) throughout. Besides, in the test on SF-295, the GI50 is > 100 µM (inactive).

The values above are taken from ChEMBL document CHEMBL1201862, “PubChem BioAssay data set” (2004).
